Several values for one entry are separate records, joined by “and”; a condition that tells them apart may be missing. Equal entries are not always repeated.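 A five-concentration, 48-hour dose response in 96-well plates underlies each endpoint, interpolated linearly between surrounding concentrations. GI50 = concentration required for 50% inhibition of growth. TGI denotes the concentration required for complete inhibition of growth.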 A value given as a limit tells only on which side of the number the result lay.

The results in this text go back to PubChem BioAssay (NCI).

Assay in all cases: NCI tumour cell line growth inhibition, 48 h
The subject of assay [1] is 786-0 renal.
Assay [2] deals with KM20L2 colon.
The test system of assay [3] is SNB-78 CNS.
The test system of assay [4] is M19-MEL melanoma.
In assay [5] the test system is DLD-1 colon.
The test system of assay [6] is HOP-18 NSCLC.
Assay [7] concerns DMS 273 small cell lung.
The test system of assay [8] is DMS 114 small cell lung.
For assay [9], the system named is XF 498 CNS.
Assay [10] deals with LXFL 529 NSCLC.
Assay [11] relates to RXF-631 renal.
The subject of assay [12] is P388 leukemia.
Assay [13] deals with P388/ADR leukemia.
The subject of assay [14] is SN12K1 renal.

For the compound `CN(Cc1cccc2ccccc12)Cc1cccc2ccccc12`, in [1], the TGI is over 100 µM.

In the case of `Nc1ccc(S(=O)(=O)Nc2ccc(Nc3c4ccccc4nc4ccccc34)cc2)cc1`, the TGI in [2] turned out to be 10.6 µM; in [3], 26.2 µM; in assay [4], 21.1 µM; in assay [5], 16.6 µM; in assay [6], 16.1 µM; in assay [1], 0.352 µM. The TGI in assay [7] turned out to be 3.08 µM; in [8], 1.9 µM; in assay [9], 20.6 µM; in assay [10], 20.6 µM; in assay [11], 10.8 µM.

On to `N=[N+]=CC(=O)CCC(NC(=O)C(CCC(=O)C=[N+]=N)NC(=O)CCC(N)C(=O)O)C(=O)O` (configuration not stated), for which the TGI in assay [12], in [2], in assay [3], in [4], in assay [13] and in assay [5] was over 100 µM throughout. The TGI in [6], in [7], in assay [8], in assay [9] and in assay [14] was over 100 µM each time.

Turning to `Oc1ccc(Cc2nccc3cc(O)c(O)cc23)cc1O`, the TGI in assay [1] was over 100 µM.

In assay [1], `CC(C)(C)NCC(O)c1ccc(O)c(CO)n1` (configuration not stated) showed a TGI of over 100 µM.

Turning to `C[n+]1ccc(Nc2ccc(NC(=O)c3ccc(Nc4cc[n+](C)c5ccc([N+](=O)[O-])cc45)cc3[N+](=O)[O-])cc2)cc1`, the TGI in [12] was over 35.1 µM; in assay [2] it was over 100 µM; in assay [3], over 100 µM; in [4], 68 µM and 61 µM; in [13] it was > 54.2 µM and 17.2 µM; in assay [5], over 100 µM. The TGI was 50.4 µM and 59.5 µM in [6]; 77.4 µM in [1]; over 100 µM in assay [7]; 27.2 µM and 41.5 µM in assay [8]; 66.9 µM and > 63.2 µM in assay [9]; over 100 µM in [14]. In assay [10], this compound showed a TGI of 50.8 µM. In addition, the GI50 in assay [3] was 42.3 µM and > 100 µM; in [13], 32.9 µM and 12 µM.

Take `C[n+]1c2ccccc2c(NC(CS)C(=O)O)c2ccccc21` (configuration not stated): the TGI in [2], in assay [3], in assay [4], in assay [5], in assay [6] and in assay [1] was over 100 µM each time. For the same compound, the TGI was 89.9 µM in [7]; 95.8 µM in assay [8]; 33.9 µM in assay [9]; over 100 µM in [10]; over 100 µM in assay [11].

For `Cc1c(Cl)c(S(N)(=O)=O)cc2c1NC=NS2(=O)=O`, the TGI in [1] is over 100 µM.

The compound `Cc1ccc(N=Nc2ccc(N)cc2C)c(S(N)(=O)=O)c1` yielded a TGI in assay [1] of over 100 µM.

On to `Nc1c(C(=O)Nc2ccc(C3=NCCN3)cc2)cccc1C(=O)Nc1ccc(C2=NCCN2)cc1`, for which the TGI in assay [12], in [2], in [3], in assay [4], in assay [13] and in assay [5] was over 100 µM in each case. Further, the TGI in assay [6], in assay [7], in [8], in [9] and in assay [14] was over 100 µM in each case.

Turning to `Cc1cc2sc(C)[n+](CCCOS(=O)(=O)[O-])c2cc1C`, the TGI in assay [1] is over 100 µM.

`C/C(=N\NC(=S)N1CCN(C)CC1)c1nc2ncccc2[nH]1`: the TGI in [1] is over 100 µM.

In turn, `C/C=C(\C)C(=O)OC1C(C)=C2C(C1OC(=O)CCCC)C(C)(OC(C)=O)CC(OC(=O)CCCC)C1(O)C2OC(=O)C1(C)O` (configuration not stated) registered a TGI in assay [1] of over 60.1 µM.
